Earlier results in patent US9877959B2, “Pharmaceutical composition containing palonosetron” (SAMYANG BIOPHARMACEUTICALS CORPORATION, priority 2013, dated 2018).

Tests used:
5-HT3 receptor = target: T1, 5-HT3 receptor (Homo sapiens, UniProt P46098); conditions: relative to first-generation 5-HT3 receptor antagonists
T1 sequence (P46098 24-478): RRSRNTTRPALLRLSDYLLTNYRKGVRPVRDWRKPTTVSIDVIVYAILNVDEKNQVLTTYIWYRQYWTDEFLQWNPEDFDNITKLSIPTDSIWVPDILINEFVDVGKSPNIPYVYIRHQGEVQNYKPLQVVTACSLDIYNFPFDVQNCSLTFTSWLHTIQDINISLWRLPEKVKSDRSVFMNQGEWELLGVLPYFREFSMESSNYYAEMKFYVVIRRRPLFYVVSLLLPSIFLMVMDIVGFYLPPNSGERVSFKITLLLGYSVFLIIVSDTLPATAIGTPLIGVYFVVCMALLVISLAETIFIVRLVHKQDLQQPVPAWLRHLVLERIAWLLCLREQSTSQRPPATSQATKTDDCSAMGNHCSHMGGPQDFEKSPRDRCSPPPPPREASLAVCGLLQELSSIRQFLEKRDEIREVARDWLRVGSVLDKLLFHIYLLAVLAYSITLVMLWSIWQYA

[1] = in vivo

O=C1c2cccc3c2C(CCC3)CN1C1CN2CCC1CC2 (stereo in doubt) [palonosetron, (3aS)-2-[(3S)-1-azabicyclo[2.2.2]oct-3-yl]-2,3,3a,4,5,6-hexahydro-1H-benz[de]isoquinolin-1-one]
inhibitory effect on delayed vomiting, higher than that of other first-generation 5-HT3 receptor antagonists (5-HT3 receptor): 10 times | half-life [1]: ≥ 40 h
